Test results: PubChem BioAssay (NCI)
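Protocol summary: plate cells (96-well), add compound at 5 concentrations, incubate 48 h, interpolate endpoints linearly. TGI marks complete inhibition of growth.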

What was measured:
Assay in all cases: NCI anticancer screen, dose series, 48 h
IGROV1 ovarian = tested on: IGROV1 ovarian
UACC-257 melanoma = tested on: UACC-257 melanoma
SN12C renal = tested on: SN12C renal
NCI/ADR-RES ovarian = tested on: NCI/ADR-RES ovarian
SNB-19 CNS = tested on: SNB-19 CNS
SW-620 colon = tested on: SW-620 colon
SK-MEL-28 melanoma = tested on: SK-MEL-28 melanoma
HCT-116 colon = tested on: HCT-116 colon
SNB-75 CNS = tested on: SNB-75 CNS
SK-OV-3 ovarian = tested on: SK-OV-3 ovarian
EKVX NSCLC = tested on: EKVX NSCLC
MALME-3M melanoma = tested on: MALME-3M melanoma
M14 melanoma = tested on: M14 melanoma
HT29 colon = tested on: HT29 colon
HCC-2998 colon = tested on: HCC-2998 colon
HS 578T breast = tested on: HS 578T breast
SK-MEL-2 melanoma = tested on: SK-MEL-2 melanoma
RXF 393 renal = tested on: RXF 393 renal
A549 NSCLC = tested on: A549 NSCLC
SF-539 CNS = tested on: SF-539 CNS
SF-295 CNS = tested on: SF-295 CNS
A498 renal = tested on: A498 renal
KM12 colon = tested on: KM12 colon
HOP-92 NSCLC = tested on: HOP-92 NSCLC
MCF7 breast = tested on: MCF7 breast
MDA-MB-231 breast = tested on: MDA-MB-231 breast
PC-3 prostate = tested on: PC-3 prostate
SK-MEL-5 melanoma = tested on: SK-MEL-5 melanoma
786-0 renal = tested on: 786-0 renal
SR leukemia = tested on: SR leukemia
MOLT-4 leukemia = tested on: MOLT-4 leukemia
NCI-H460 lung = tested on: NCI-H460 lung
BT-549 breast = tested on: BT-549 breast
SF-268 CNS = tested on: SF-268 CNS
NCI-H226 lung = tested on: NCI-H226 lung
CAKI-1 renal = tested on: CAKI-1 renal
OVCAR-5 ovarian = tested on: OVCAR-5 ovarian
UO-31 renal = tested on: UO-31 renal
OVCAR-4 ovarian = tested on: OVCAR-4 ovarian
NCI-H522 lung = tested on: NCI-H522 lung
U251 CNS = tested on: U251 CNS
K-562 leukemia = tested on: K-562 leukemia
MDA-N = tested on: MDA-N
HOP-62 NSCLC = tested on: HOP-62 NSCLC
NCI-H23 lung = tested on: NCI-H23 lung
OVCAR-8 ovarian = tested on: OVCAR-8 ovarian
COLO 205 colon = tested on: COLO 205 colon
DU-145 prostate = tested on: DU-145 prostate
T-47D breast = tested on: T-47D breast
OVCAR-3 ovarian = tested on: OVCAR-3 ovarian
MDA-MB-435 = tested on: MDA-MB-435
LOX IMVI melanoma = tested on: LOX IMVI melanoma
HL-60(TB) leukemia = tested on: HL-60(TB) leukemia
CCRF-CEM leukemia = tested on: CCRF-CEM leukemia
UACC-62 melanoma = tested on: UACC-62 melanoma
HCT-15 colon = tested on: HCT-15 colon
ACHN renal = tested on: ACHN renal
RPMI-8226 leukemia = tested on: RPMI-8226 leukemia

Measured: TGI

O=C1c2ccccc2-c2nnc(-c3ccc(Cl)cc3)cc21
> 10 µM: IGROV1 ovarian | UACC-257 melanoma | SN12C renal | NCI/ADR-RES ovarian | SNB-19 CNS | SW-620 colon | SK-MEL-28 melanoma | HCT-116 colon | SNB-75 CNS | SK-OV-3 ovarian | EKVX NSCLC | MALME-3M melanoma | M14 melanoma | HT29 colon | HCC-2998 colon | HS 578T breast | SK-MEL-2 melanoma | RXF 393 renal | A549 NSCLC | SF-539 CNS | SF-295 CNS | A498 renal | KM12 colon | HOP-92 NSCLC | MCF7 breast | MDA-MB-231 breast | PC-3 prostate | SK-MEL-5 melanoma | 786-0 renal | SR leukemia | MOLT-4 leukemia | NCI-H460 lung | BT-549 breast | SF-268 CNS | NCI-H226 lung | CAKI-1 renal | OVCAR-5 ovarian | UO-31 renal | OVCAR-4 ovarian | NCI-H522 lung | U251 CNS | K-562 leukemia | MDA-N | HOP-62 NSCLC | NCI-H23 lung | OVCAR-8 ovarian | COLO 205 colon | DU-145 prostate | T-47D breast | OVCAR-3 ovarian | MDA-MB-435 | LOX IMVI melanoma | HL-60(TB) leukemia | CCRF-CEM leukemia | UACC-62 melanoma | HCT-15 colon | ACHN renal | RPMI-8226 leukemia
